Assay results: US8802597B2, “Herbicidal pyrimidines” (E I du Pont de Nemours and Company, priority 2003, dated 2014)
Like-named read-outs stand apart in the source and are kept apart here.

Tests used:
Type in all cases: in vivo
[1] = test system: morningglory (Ipomoea coccinea); experiment: Test B pre/postemergence; settings: Ipomoea; for pest or weed control at 125 g/ha: 125 g ai/ha; for pest or weed control at 500 g/ha: 500 g ai/ha
Method in brief: (§1)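 Under greenhouse conditions, seeded pots and young plants (1- to 4-leaf, 2 to 18 cm) were treated at the same time with test chemicals in a non-phytotoxic solvent mixture containing surfactant. Response was assessed visually after 13 to 15 days, from 0 (no effect) to 100 (complete control).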

[2] = test system: giant foxtail (Setaria faberii); experiment: Test B pre/postemergence; settings: Setaria faberi; for pest or weed control at 125 g/ha: 125 g ai/ha; for pest or weed control at 500 g/ha: 500 g ai/ha
Method in brief: as §1

[3] = test system: velvetleaf (Abutilon theophrasti); experiment: Test B pre/postemergence; settings: Abutilon theophrasti; for pest or weed control at 125 g/ha: 125 g ai/ha; for pest or weed control at 500 g/ha: 500 g ai/ha
Method in brief: as §1

[4] = test system: crabgrass (Digitaria sanguinalis); experiment: Test B pre/postemergence; settings: Digitaria sanguinalis; for pest or weed control at 125 g/ha: 125 g ai/ha; for pest or weed control at 500 g/ha: 500 g ai/ha
Method in brief: as §1

[5] = test system: Surinam grass (Brachiaria decumbens); experiment: Test B pre/postemergence; settings: Urochloa decumbens; for pest or weed control at 125 g/ha: 125 g ai/ha; for pest or weed control at 500 g/ha: 500 g ai/ha
Method in brief: as §1

[6] = test system: lambsquarters (Chenopodium album); experiment: Test B pre/postemergence; settings: Chenopodium album; for pest or weed control at 125 g/ha: 125 g ai/ha; for pest or weed control at 500 g/ha: 500 g ai/ha
Method in brief: as §1

[7] = test system: wheat (Triticum aestivum); experiment: Test B pre/postemergence; settings: Triticum aestivum; for plant injury at 125 g/ha: 125 g ai/ha; for plant injury at 500 g/ha: 500 g ai/ha
Method in brief: as §1

[8] = test system: corn (Zea mays); experiment: Test B pre/postemergence; settings: Zea mays
Method in brief: as §1

[9] = test system: pigweed (Amaranthus retroflexus); experiment: Test B pre/postemergence; settings: Amaranthus retroflexus; for pest or weed control at 125 g/ha: 125 g ai/ha; for pest or weed control at 500 g/ha: 500 g ai/ha
Method in brief: as §1

[10] = test system: barnyardgrass (Echinochloa crus-galli); experiment: Test B pre/postemergence; settings: Echinochloa crus-galli; for pest or weed control at 125 g/ha: 125 g ai/ha; for pest or weed control at 500 g/ha: 500 g ai/ha
Method in brief: as §1

[11] = test system: cocklebur (Xanthium strumarium); experiment: Test B pre/postemergence; settings: Xanthium strumarium; for pest or weed control at 125 g/ha: 125 g ai/ha; for pest or weed control at 500 g/ha: 500 g ai/ha
Method in brief: as §1

[12] = test system: umbrella sedge (Cyperus difformis); experiment: Test B flooded paddy test; settings: Cyperus difformis, Flood, 1000 g ai/ha; scale 0 to 100; read-out: Plant response rating, Sedge, Umbrella
Method in brief: (§2)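 Plants were grown to the 2-leaf stage before treatment, then kept in a greenhouse for 13 to 15 days. Injury was rated visually against untreated controls on a 0 to 100 scale, where 0 is no effect and 100 is complete control.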

[13] = test system: duck salad (Heteranthera limosa); experiment: Test B flooded paddy test; settings: Heteranthera limosa, Flood, 1000 g ai/ha; scale 0 to 100; read-out: Plant response rating, Ducksalad
Method in brief: as §2

[14] = test system: rice (Oryza sativa); experiment: Test B flooded paddy test; settings: Oryza sativa, Flood, 1000 g ai/ha; scale 0 to 100; read-out: Plant response rating, Rice
Method in brief: as §2

[15] = test system: barnyardgrass (Echinochloa crus-galli); experiment: Test B flooded paddy test; settings: Echinochloa crus-galli, Flood, 1000 g ai/ha; scale 0 (no effect) to 100 (complete control); read-out: Plant response rating, Barnyardgrass
Method in brief: as §2

[16] = test system: wild oat (Avena fatua); experiment: Test B postemergence; settings: Avena fatua, post-emergence
Method in brief: as §1

[17] = test system: blackgrass (Alopecurus myosuroides); experiment: Test B postemergence; settings: Alopecurus myosuroides, post-emergence
Method in brief: as §1

COC(=O)c1nc(C(C)C)nc(N)c1Br [Compound 3]
pest or weed control at 125 g/ha ([1]; post-emergence, Postemergence, scale 0 to 100 (0 no effect, 100 complete control), read-out: Morningglory plant response rating): 80%
pest or weed control at 500 g/ha ([1]; post-emergence, Postemergence, scale 0 to 100, read-out: Plant response rating, Morningglory): 100%
pest or weed control at 125 g/ha ([1]; pre-emergence, Preemergence, scale 0 to 100 (0 no effect, 100 complete control), read-out: Plant response rating, Morningglory): 50%
pest or weed control at 500 g/ha ([1]; pre-emergence, Preemergence, scale 0 to 100 (0 no effect, 100 complete control), read-out: Morningglory plant response rating): 60%
pest or weed control at 125 g/ha ([2]; post-emergence, Postemergence, scale 0 to 100 (0 no effect, 100 complete control), read-out: Foxtail, Giant plant response rating): 20%
pest or weed control at 500 g/ha ([2]; post-emergence, Postemergence, scale 0 to 100, read-out: Plant response rating, Foxtail, Giant): 40%
pest or weed control at 125 g/ha ([2]; pre-emergence, Preemergence, scale 0 to 100 (0 no effect, 100 complete control), read-out: Plant response rating, Foxtail, Giant): 0%
pest or weed control at 500 g/ha ([2]; pre-emergence, Preemergence, scale 0 to 100 (0 no effect, 100 complete control), read-out: Foxtail, Giant plant response rating): 0%
pest or weed control at 125 g/ha ([3]; post-emergence, Postemergence, scale 0 to 100 (0 no effect, 100 complete control), read-out: Velvetleaf plant response rating): 50%
pest or weed control at 500 g/ha ([3]; post-emergence, Postemergence, scale 0 to 100, read-out: Plant response rating, Velvetleaf): 80%
pest or weed control at 125 g/ha ([3]; pre-emergence, Preemergence, scale 0 to 100 (0 no effect, 100 complete control), read-out: Plant response rating, Velvetleaf): 40%
pest or weed control at 500 g/ha ([3]; pre-emergence, Preemergence, scale 0 to 100 (0 no effect, 100 complete control), read-out: Velvetleaf plant response rating): 70%
pest or weed control at 125 g/ha ([4]; post-emergence, Postemergence, scale 0 to 100 (0 no effect, 100 complete control), read-out: Crabgrass plant response rating): 30%
pest or weed control at 500 g/ha ([4]; post-emergence, Postemergence, scale 0 to 100, read-out: Plant response rating, Crabgrass): 40%
pest or weed control at 125 g/ha ([4]; pre-emergence, Preemergence, scale 0 to 100 (0 no effect, 100 complete control), read-out: Plant response rating, Crabgrass): 10%
pest or weed control at 500 g/ha ([4]; pre-emergence, Preemergence, scale 0 to 100 (0 no effect, 100 complete control), read-out: Crabgrass plant response rating): 50%
pest or weed control at 125 g/ha ([5]; post-emergence, Postemergence, scale 0 to 100 (0 no effect, 100 complete control), read-out: Surinam Grass plant response rating): 10%
pest or weed control at 500 g/ha ([5]; post-emergence, Postemergence, scale 0 to 100, read-out: Plant response rating, Surinam Grass): 30%
pest or weed control at 125 g/ha ([5]; pre-emergence, Preemergence, scale 0 to 100 (0 no effect, 100 complete control), read-out: Plant response rating, Surinam Grass): 0%
pest or weed control at 500 g/ha ([5]; pre-emergence, Preemergence, scale 0 to 100 (0 no effect, 100 complete control), read-out: Surinam Grass plant response rating): 20%
pest or weed control at 125 g/ha ([6]; post-emergence, Postemergence, scale 0 to 100 (0 no effect, 100 complete control), read-out: Lambsquarters plant response rating): 100%
pest or weed control at 500 g/ha ([6]; post-emergence, Postemergence, scale 0 to 100, read-out: Plant response rating, Lambsquarters): 100%
pest or weed control at 125 g/ha ([6]; pre-emergence, Preemergence, scale 0 to 100 (0 no effect, 100 complete control), read-out: Plant response rating, Lambsquarters): 70%
pest or weed control at 500 g/ha ([6]; pre-emergence, Preemergence, scale 0 to 100 (0 no effect, 100 complete control), read-out: Lambsquarters plant response rating): 90%
plant injury at 125 g/ha ([7]; post-emergence, Postemergence, scale 0 to 100 (0 no effect, 100 complete control), read-out: Wheat plant response rating): 10%
plant injury at 500 g/ha ([7]; post-emergence, Postemergence, scale 0 to 100, read-out: Plant response rating, Wheat): 20%
plant injury at 125 g/ha ([7]; pre-emergence, Preemergence, scale 0 to 100 (0 no effect, 100 complete control), read-out: Plant response rating, Wheat): 0%
plant injury at 500 g/ha ([7]; pre-emergence, Preemergence, scale 0 to 100 (0 no effect, 100 complete control), read-out: Wheat plant response rating): 0%
plant injury at 125 g/ha ([8]; post-emergence, Postemergence, 125 g ai/ha, scale 0 to 100 (0 no effect, 100 complete control), read-out: Corn plant response rating): 0%
Corn plant response rating (crop injury, 0 = no effect, 100 = complete kill) at 500 g/ha ([8]; post-emergence, Postemergence, 500 g ai/ha, scale 0 to 100): 0%
Corn plant response rating (crop injury, 0 = no effect, 100 = complete kill) at 125 g/ha ([8]; pre-emergence, Preemergence, 125 g ai/ha, scale 0 to 100 (0 no effect, 100 complete control)): 0%
plant injury at 500 g/ha ([8]; pre-emergence, Preemergence, 500 g ai/ha, scale 0 to 100 (0 no effect, 100 complete control), read-out: Corn plant response rating): 0%
pest or weed control at 125 g/ha ([9]; post-emergence, Postemergence, scale 0 to 100 (0 no effect, 100 complete control), read-out: Pigweed plant response rating): 80%
pest or weed control at 500 g/ha ([9]; post-emergence, Postemergence, scale 0 to 100, read-out: Plant response rating, Pigweed): 90%
pest or weed control at 125 g/ha ([9]; pre-emergence, Preemergence, scale 0 to 100 (0 no effect, 100 complete control), read-out: Plant response rating, Pigweed): 80%
pest or weed control at 500 g/ha ([9]; pre-emergence, Preemergence, scale 0 to 100 (0 no effect, 100 complete control), read-out: Pigweed plant response rating): 90%
pest or weed control at 125 g/ha ([10]; post-emergence, Postemergence, scale 0 to 100 (0 no effect, 100 complete control), read-out: Barnyardgrass plant response rating): 0%
pest or weed control at 500 g/ha ([10]; post-emergence, Postemergence, scale 0 to 100, read-out: Plant response rating, Barnyardgrass): 10%
pest or weed control at 125 g/ha ([10]; pre-emergence, Preemergence, scale 0 to 100 (0 no effect, 100 complete control), read-out: Plant response rating, Barnyardgrass): 0%
pest or weed control at 500 g/ha ([10]; pre-emergence, Preemergence, scale 0 to 100 (0 no effect, 100 complete control), read-out: Barnyardgrass plant response rating): 0%
pest or weed control at 125 g/ha ([11]; post-emergence, Postemergence, scale 0 to 100 (0 no effect, 100 complete control), read-out: Cocklebur plant response rating): 70%
pest or weed control at 500 g/ha ([11]; post-emergence, Postemergence, scale 0 to 100, read-out: Plant response rating, Cocklebur): 100%
pest or weed control at 125 g/ha ([11]; pre-emergence, Preemergence, scale 0 to 100 (0 no effect, 100 complete control), read-out: Plant response rating, Cocklebur): 80%
pest or weed control at 500 g/ha ([11]; pre-emergence, Preemergence, scale 0 to 100 (0 no effect, 100 complete control), read-out: Cocklebur plant response rating): 80%
pest or weed control at 1000 g/ha [12]: 0%
pest or weed control at 1000 g/ha [13]: 0%
plant injury at 1000 g/ha [14]: 0%
pest or weed control at 1000 g/ha [15]: 0%
pest or weed control at 125 g/ha ([16]; 125 g ai/ha, scale 0 to 100 (0 no effect, 100 complete control), read-out: Oat, Wild plant response rating): 10%
pest or weed control at 500 g/ha ([16]; 500 g ai/ha, scale 0 to 100, read-out: Plant response rating, Oat, Wild): 30%
pest or weed control at 125 g/ha ([17]; 125 g ai/ha, scale 0 to 100 (0 no effect, 100 complete control), read-out: Blackgrass plant response rating): 20%
pest or weed control at 500 g/ha ([17]; 500 g ai/ha, scale 0 to 100, read-out: Plant response rating, Blackgrass): 50%
